# Target: T1, human HPK1 protein (Homo sapiens, UniProt Q92918)
# T1 construct: recombinant human HPK1 protein (a.a. 1-346) was expressed in Sf9 insect cells; GST (N); purchased Signalchem M23-11G; host or cells: Sf9 insect cells (baculovirus)
# T1 sequence (Q92918 1-346): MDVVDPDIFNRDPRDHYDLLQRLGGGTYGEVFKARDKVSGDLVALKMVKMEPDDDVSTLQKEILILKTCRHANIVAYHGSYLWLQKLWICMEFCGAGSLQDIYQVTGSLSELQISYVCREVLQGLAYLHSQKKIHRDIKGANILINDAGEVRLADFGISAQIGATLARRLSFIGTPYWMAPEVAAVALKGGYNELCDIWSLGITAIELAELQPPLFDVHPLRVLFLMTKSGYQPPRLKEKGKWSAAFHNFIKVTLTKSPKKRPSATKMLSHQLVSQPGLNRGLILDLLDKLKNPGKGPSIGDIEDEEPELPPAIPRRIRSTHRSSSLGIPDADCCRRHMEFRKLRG
# Assay: Human HPK1 protein TR-FRET assay
# Assay type: biochemical
# Conditions: 1 mM ATP, Table 19
# Method in brief: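 Read-out was TR-FRET using Eu-labeled anti-phospho-CREB (Ser133) antibody, with the 665/615 nm signal ratio normalised to DMSO-only wells and fitted by a 4-parameter logistic model for IC50. Reactions held 10 nM Sf9-expressed GST-HPK1 (a.a. 1-346), 100 nM CREBtide and 1 mM ATP, run 60 minutes at room temperature, pH 7.5.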
row,Structure (SMILES),IC50 [nM]
1,"CCN1CCN(Cc2ccc(NC(=O)N3Cc4cc(Oc5ccnc6[nH]ccc56)cnc4C(C)C3)cc2C(F)(F)F)CC1 (stereo not shown) [compound 10, 3-((1H-Pyrrolo[2,3-b]pyridin-4-yl)oxy)-N-(4-((4-ethylpiperazin-1-yl)methyl)-3-(trifluoromethyl)phenyl)-8-methyl-7,8-dihydro-1,6-naphthyridine-6(5H)-carboxamide]",< 500
2,CCN1CCN(Cc2ccc(NC(=O)N3CCc4ccc(Sc5ncnn6cccc56)cc4C3)cc2C(F)(F)F)CC1 [X-3],500 to 5000
3,CCN1CCN(Cc2ccc(NC(=O)N3CCc4ccc(Oc5ccnc6c5CCN6)cc4C3)cc2C(F)(F)F)CC1 [III-5],< 500
4,CCN1CCN(Cc2ccc(NC(=O)N3CCc4ccc(Oc5ncnn6cc(C#N)cc56)cc4[C@@H]3C)cc2C(F)(F)F)CC1 [V-9],< 500
5,C[C@H]1c2cc(Oc3ccnc4[nH]ccc34)ccc2CCN1C(=O)Nc1ccc(OC2CCN(CCO)CC2)c(C(F)(F)F)c1 [V-17],< 500
6,CCN1CCN(Cc2ccc(NC(=O)N3CCc4c(C)cc(Oc5ccnc6[nH]ccc56)cc4C3)cc2C(F)(F)F)CC1 [III-9],< 500
7,CCN1CCN(Cc2ccc(NC(=O)N3Cc4cc(Oc5ccnc6[nH]c(C)cc56)ccc4C(C)C3)cc2C(F)(F)F)CC1 (stereo not shown) [IV-17],< 500
8,CCN1CCN(Cc2ccc(NC(=O)N3CCc4ccc(Oc5cn[nH]c5)cc4C3)cc2C(F)(F)F)CC1 [II-21],500 to 5000
9,CC1CN(C(=O)Nc2cnc(OC3CCN(C)CC3)c(C(F)(F)F)c2)Cc2cc(Oc3ccnc4[nH]ncc34)cnc21 (stereo not shown) [VII-10],< 500
10,CCN1CCN(Cc2ccc(NC(=O)N3Cc4cc(Oc5ccnc6[nH]ncc56)cnc4C(C)C3)cc2C(F)(F)F)CC1 (stereo not shown) [VII-15],< 500
11,CCN1CCN(Cc2ccc(NC(=O)N3CCc4ccc(Oc5ccnc6[nH]ccc56)cc4[C@@H]3C)cc2C(F)(F)F)C(=O)C1 [V-20],500 to 5000
12,"CCN1CCN(Cc2ccc(NC(=O)N3CCc4ccc(Oc5ccnc6[nH]ccc56)cc4[C@@H]3C)cc2C(F)(F)F)CC1 [compound 6, (S)-7-((1H-Pyrrolo[2,3-b]pyridin-4-yl)oxy)-N-(4-((4-ethylpiperazin-1-yl)methyl)-3-(trifluoromethyl)phenyl)-1-methyl-3,4-dihydroisoquinoline-2(1H)-carboxamide]",< 500
13,"CCN1CCN(Cc2ccc(NC(=O)N3Cc4cc(Nc5ccnc(NC)c5)cnc4C(C)C3)cc2C(F)(F)F)CC1 (single isomer, unassigned) [IX-2]",500 to 5000
14,CCN1CCN(Cc2ccc(NC(=O)N3CCc4ccc(Oc5cc(NC(=O)C6CC6)ncn5)cc4C3)cc2C(F)(F)F)CC1 [II-10],< 500
15,Cc1cc2c(Oc3ccc4c(c3)[C@H](C)N(C(=O)Nc3cnc(OC5CCN(C)CC5F)c(C(F)(F)F)c3)CC4)ccnc2[nH]1 (stereo in doubt) [VI-11],500 to 5000
16,CCN1CCN(Cc2ccc(NC(=O)N3CCc4ccc(Oc5ccnc(NC)c5)cc4C3)cc2C(F)(F)F)CC1 [II-13],< 500
17,CCN1CCN(Cc2ccc(NC(=O)N3CCc4nc(C)c(Oc5ccnc6[nH]ccc56)cc4C3)cc2C(F)(F)F)CC1 [X-5],< 500
18,"CCN1CCN(Cc2ccc(NC(=O)N3CCc4cc(F)c(Oc5ccnc6[nH]ccc56)cc4C3C)cc2C(F)(F)F)CC1 (single isomer, unassigned) [IV-6]",< 500
19,CCN1CCN(Cc2ccc(NC(=O)N3CCc4ccc(Oc5ccnn6cc(-c7cnn(C)c7)cc56)cc4[C@@H]3C)cc2C(F)(F)F)CC1 [V-7],< 500
20,Cc1cc2c(Oc3ccc4c(c3)[C@H](C)N(C(=O)Nc3cnc(OC5CCCN(C)CC5)c(C(F)(F)F)c3)CC4)ccnc2[nH]1 (mixture of isomers) [VI-13],500 to 5000
21,Cc1cc2c(Oc3ccc4c(c3)[C@H](C)N(C(=O)Nc3cnc(OC5CCCN(C)C5)c(C(F)(F)F)c3)CC4)ccnc2[nH]1 (mixture of isomers) [VI-6],500 to 5000
22,"CCN1CCN(Cc2ccc(NC(=O)N3CC(=O)c4ccc(Oc5ccnc6[nH]c(C)cc56)cc4C3)cc2C(F)(F)F)CC1 [compound 17, N-(4-((4-ethylpiperazin-1-yl)methyl)-3-(trifluoromethyl)phenyl)-7-((2-methyl-1H-pyrrolo[2,3-b]pyridin-4-yl)oxy)-4-oxo-3,4-dihydroisoquinoline-2(1H)-carboxamide]",< 500

# The remaining lines, values ahead:
row,IC50 [nM],Structure (SMILES)
1,500 to 5000,CCN1CCN(Cc2ccc(NC(=O)N3CCc4ncc(Oc5ncnc6[nH]c(C)cc56)cc4C3C)cc2C(F)(F)F)CC1 (stereo not shown) [VIII-6]
2,500 to 5000,"CCN1CCN(Cc2ccc(NC(=O)N3CCc4ncc(Oc5ccnc6[nH]ncc56)cc4C3C)cc2C(F)(F)F)CC1 (single isomer, unassigned) [VIII-4]"

# Same assay, conditions: 1 mM ATP, Table 20
row,Structure (SMILES),IC50 [nM]
1,CCN1CCN(Cc2ccc(NC(=O)N3CCc4ncc(Oc5ncnc6[nH]c(C)cc56)cc4[C@H]3C)cc2C(F)(F)F)CC1 [XI-8],5000 to 10000
2,CC[C@@H]1CN(C(=O)Nc2ccc(CN3CCN(CCO)CC3)c(C(F)(F)F)c2)Cc2cc(Oc3ccnc4[nH]c(C5CC5)cc34)ccc21 [XV-26],< 500
3,O=C(Nc1ccc(CN2CCNCC2)c(C(F)(F)F)c1)N1CCc2ccc(Oc3c(F)cnc4[nH]c(C5(O)CC5)cc34)cc2C1 [XVIII-5],< 500
4,CC[C@@H]1CN(C(=O)Nc2ccc(CN3CCN(CCO)CC3)c(C(F)(F)F)c2)Cc2cc(Oc3ccnc4[nH]c(CO)cc34)ccc21 [XV-6],< 500
5,CN1CCN(Cc2ccc(NC(=O)N3Cc4cc(Oc5ccnc6[nH]c(C(=O)N(C)C)cc56)ccc4C(C(F)(F)F)C3)cc2C(F)(F)F)CC1 (stereo not shown) [XVIII-13],< 500
6,CC[C@H]1CN(C(=O)Nc2ccc(CN3CCN(C)CC3)c(C(F)(F)F)c2)Cc2cc(Oc3ccnc4[nH]c(C#N)cc34)ccc21 [XV-28],< 500
7,CN1CCN(Cc2ccc(NC(=O)N3CCc4ccc(Oc5ccnc6[nH]c(C7(O)CC7)cc56)cc4C3)cc2C(F)(F)F)CC1 [XVIII-10],< 500

# Other lines, results leading:
row,IC50 [nM],Structure (SMILES)
1,< 500,CC[C@H]1CN(C(=O)Nc2ccc(CN3CCN(C)CC3)c(C(F)(F)F)c2)Cc2cc(Oc3ccnc4[nH]c(-c5noc(=O)[nH]5)cc34)cnc21 [XIV-132]
2,< 500,CC[C@H]1CN(C(=O)Nc2ccc(CN3CCN(C)CC3)c(C(F)(F)F)c2)Cc2cc(Oc3ncnc4[nH]c(C(=O)NC)cc34)cnc21 [XIV-121]
3,< 500,CC[C@H]1CN(C(=O)Nc2ccc(CN3CCNCC3)c(C(F)(F)F)c2)Cc2cc(Oc3ccnc4[nH]c(-c5n[nH]c(=O)o5)cc34)cnc21 [XIV-130]
4,< 500,CC[C@H]1CN(C(=O)Nc2ccc(CN3CCN(C)CC3)c(C(F)(F)F)c2)Cc2cc(Oc3ccnc4[nH]c(C(=O)NC)cc34)cnc21 [XIV-85]
5,< 500,CCC1CN(C(=O)Nc2ccc(CN3CCN(CC)CC3)c(C(F)(F)F)c2)Cc2cc(Oc3cc(NC(=O)OC)ncc3F)cnc21 (stereo not shown) [XIV-87]
6,< 500,CC[C@@H]1CN(C(=O)Nc2ccc(CN3CCN(CCO)CC3)c(C(F)(F)F)c2)Cc2cc(Oc3ccnc4[nH]c(C5CC5)cc34)cnc21 [XIV-65]
7,< 500,CC[C@@H]1CN(C(=O)Nc2cnc(O[C@@H]3CCN[C@H](C)C3)c(C(F)(F)F)c2)Cc2cc(Oc3ccnc4[nH]c(C)cc34)cnc21 [XIV-69]
8,< 500,C[C@H]1c2cc(Oc3c(F)cnc4[nH]c(-c5cnn(C)c5)cc34)ccc2CCN1C(=O)Nc1ccc(CN2CCN(C)CC2)c(C(F)(F)F)c1 [XII-3]
9,< 500,CC[C@@H]1CN(C(=O)Nc2ccc(CN3CCN(CC)CC3)c(C(F)(F)F)c2)Cc2cc(Oc3ccnc4[nH]c(C5CC5)cc34)cnc21 [XIV-23]
10,< 500,CC[C@@H]1CN(C(=O)Nc2ccc(CN3CCNCC3)c(C(F)(F)F)c2)Cc2cc(Oc3ccnc4[nH]c(CO)cc34)cnc21 [XIV-45]
11,< 500,CN1CCN(Cc2ccc(NC(=O)N3CCc4cc(F)c(Nc5c(F)cnc6[nH]c(-c7cnn(C)c7)cc56)cc4C3)cc2C(F)(F)F)CC1 [XVII-3]
12,< 500,CC[C@H]1CN(C(=O)Nc2ccc(CN3CCN(C)CC3)c(C(F)(F)F)c2)Cc2cc(Oc3ccnc4[nH]c(C(=O)N5CCCC5)cc34)cnc21 [XIV-102]
13,< 500,CCN1CCN(Cc2ccc(NC(=O)N3CCc4ccc(Oc5cc(NC(=O)c6ccnnc6)ncc5F)cc4[C@@H]3C)cc2C(F)(F)F)CC1 [XIII-14]
14,< 500,CC[C@H]1CN(C(=O)Nc2ccc(CN3CCN(C)CC3)c(C(F)(F)F)c2)Cc2cc(Oc3ccnc4[nH]c(CO)cc34)cnc21 [XIV-46]
15,< 500,CC[C@@H]1CN(C(=O)Nc2ccc(CN3CCN(C)CC3)c(C(F)(F)F)c2)Cc2cc(Oc3ccnc4[nH]c(CO)cc34)cnc21 [XIV-56]
16,< 500,CC[C@@H]1CN(C(=O)Nc2ccc(CN3CCN(CC)CC3)c(C(F)(F)F)c2)Cc2cc(Oc3ncnc4[nH]c(C5CC5)cc34)cnc21 [XIV-37]
17,< 500,Cc1cc2c(Oc3cnc4c(c3)CN(C(=O)Nc3ccc(CN5CCNC6(CC6)C5)c(C(F)(F)F)c3)C[C@H]4C)ccnc2[nH]1 [XIV-94]
18,< 500,CC[C@H]1CN(C(=O)Nc2ccc(CN3CCN(C)CC3)c(C(F)(F)F)c2)Cc2cc(Oc3ccnc4[nH]c(-c5nnc(C)o5)cc34)cnc21 [XIV-112]
19,500 to 5000,CC[C@H]1CN(C(=O)Nc2ccc(CN3CCN(C)CC3)c(C(F)(F)F)c2)Cc2cc(Oc3ccnn4cc(C(=O)NC)nc34)cnc21 [XIV-120]
20,< 500,CC[C@@H]1CN(C(=O)Nc2ccc(CN3CCN(CC)CC3)c(C(F)(F)F)c2)Cc2cc(Oc3ccnc4[nH]c(C5(O)CC5)cc34)cnc21 [XIV-76]
21,< 500,C[C@H]1c2cc(Oc3ccnc4[nH]c(CO)cc34)ccc2CCN1C(=O)Nc1ccc(CN2CCN(CCO)CC2)c(C(F)F)c1 [XIII-12]

# From patent US20210139484A1, “DIHYDROISOQUINOLINE-2(1H)-CARBOXAMIDE AND RELATED COMPOUNDS AND THEIR USE IN TREATING MEDICAL CONDITIONS” (GOSSAMER BIO SERVICES, INC., priority 2018, published 2021)
